Legend:
Assay type in all cases: biochemical
[1] = target: T1, human GST-CLK1 (Homo sapiens, UniProt P49759); experiment: GST-CLK1 enzyme inhibition, ADP-Glo kinase assay; settings: ATP 10 μM, GST-CLK1 129-end
T1 construct: purified human GST-CLK1 (129-end, SignalChem) enzyme; purchased SignalChem
In short: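 Human GST-CLK1 (129-end, 3 ng) reacted with substrate and 10 μM ATP for 1 h at 25° C in 40 mM Tris-HCl pH 7.4, 20 mM MgCl2, 0.5 mg/mL BSA, 50 μM DTT. ADP-Glo luminescence was normalised to solvent control; IC50 (nM) from 3 data sets.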

[2] = target: LRRK2 (G2019S) (Homo sapiens, UniProt Q5S007, G2019S); experiment: LRRK2 G2019S enzyme inhibition, ADP-Glo kinase assay; parameters: purchased SignalChem L10-12GG; settings: ATP 25 μM
LRRK2 (G2019S), sequence (Q5S007 970-2527 G2019S limits assumed): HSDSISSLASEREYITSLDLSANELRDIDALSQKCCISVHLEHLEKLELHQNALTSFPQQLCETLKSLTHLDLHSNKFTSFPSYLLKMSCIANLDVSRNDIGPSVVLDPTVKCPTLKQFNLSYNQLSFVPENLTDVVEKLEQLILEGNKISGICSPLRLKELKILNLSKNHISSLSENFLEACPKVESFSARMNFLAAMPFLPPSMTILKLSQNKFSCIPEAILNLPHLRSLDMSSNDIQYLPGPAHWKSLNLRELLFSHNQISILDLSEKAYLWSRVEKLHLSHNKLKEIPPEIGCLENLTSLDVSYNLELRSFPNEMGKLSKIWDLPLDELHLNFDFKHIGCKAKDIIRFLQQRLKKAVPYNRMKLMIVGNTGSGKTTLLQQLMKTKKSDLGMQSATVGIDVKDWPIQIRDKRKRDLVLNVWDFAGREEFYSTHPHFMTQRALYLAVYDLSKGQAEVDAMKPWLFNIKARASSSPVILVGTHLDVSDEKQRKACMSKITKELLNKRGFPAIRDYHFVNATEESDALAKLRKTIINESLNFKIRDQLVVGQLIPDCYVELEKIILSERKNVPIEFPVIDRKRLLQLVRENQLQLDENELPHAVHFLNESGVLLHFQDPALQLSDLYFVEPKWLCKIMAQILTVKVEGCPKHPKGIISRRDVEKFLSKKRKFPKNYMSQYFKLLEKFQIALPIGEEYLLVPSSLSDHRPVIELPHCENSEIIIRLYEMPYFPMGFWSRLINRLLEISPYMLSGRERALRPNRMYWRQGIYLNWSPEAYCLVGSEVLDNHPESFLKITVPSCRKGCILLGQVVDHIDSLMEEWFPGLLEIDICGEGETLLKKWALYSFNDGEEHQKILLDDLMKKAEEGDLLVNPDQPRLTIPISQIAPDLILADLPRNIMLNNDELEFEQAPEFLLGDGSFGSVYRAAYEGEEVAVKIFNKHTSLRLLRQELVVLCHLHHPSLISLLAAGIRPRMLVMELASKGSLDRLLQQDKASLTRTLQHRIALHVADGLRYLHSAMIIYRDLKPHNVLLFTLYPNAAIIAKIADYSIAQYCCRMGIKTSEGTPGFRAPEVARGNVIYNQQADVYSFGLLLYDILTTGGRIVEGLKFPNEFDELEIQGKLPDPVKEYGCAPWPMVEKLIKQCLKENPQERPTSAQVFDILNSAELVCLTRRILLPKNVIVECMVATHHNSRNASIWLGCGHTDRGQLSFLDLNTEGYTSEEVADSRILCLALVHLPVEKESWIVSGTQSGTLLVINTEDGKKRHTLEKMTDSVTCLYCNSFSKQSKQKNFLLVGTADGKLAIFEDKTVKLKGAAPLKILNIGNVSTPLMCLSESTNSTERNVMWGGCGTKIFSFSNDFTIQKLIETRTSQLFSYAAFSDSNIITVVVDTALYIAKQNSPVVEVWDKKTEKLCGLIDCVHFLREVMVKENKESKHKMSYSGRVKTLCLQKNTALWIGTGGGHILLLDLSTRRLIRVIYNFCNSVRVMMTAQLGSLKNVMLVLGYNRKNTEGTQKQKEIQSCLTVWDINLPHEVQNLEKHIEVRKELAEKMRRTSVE
Protocol: To evaluate an inhibitory activity of the compound according to the present invention against LRRK2, LRRK2 (G2019S), DYRK1, CLK1, and TTK kinases, experiments were performed as follows.
Each of the Example compounds was reacted with a purified human LRRK2 G2019S (L10-12GG, SignalChem) enzyme to evaluate an ability to inhibit an enzyme using a method as described below. A composition of 40 mM Tris-HCl (pH 7.4), 20 mM MgCl2, 0.5 mg/mL BSA, and 50 μM DTT was used as a reaction buffer, and all reactions of test substances were performed in the reaction buffer. Each of the compounds was diluted […] from a 10 mM DMSO stock using a serial dilution method, and enzyme activities were measured at final compound concentrations of 50, 10, 2, 0.4, 0.08, 0.016, 0.0032, 0.00064, 0.000128, 0.0000256, 0.00000512, and 0.000001024 μM. In the test, purified ATP (25 μM) and an enzyme substrate (0.2 μg) were reacted with a human LRRK2 G2019S (16 ng) enzyme at 25° C. for 2 hours, and the enzyme activities were then determined using an in vitro ADP-Glo™ kinase assay (Promega). An enzyme-activity reaction solution, an ADP-Glo reaction solution, and an enzyme-ability detection solution were reacted at a ratio of 2:2:1 to measure a degree of inhibition of the enzyme activity with luminescence. The degree of inhibition of the enzyme activity according to the treatment concentration of each of the compounds was calculated based on the fluorescence of the enzyme activity of the solvent control which was not treated with the compound. In this case, the concentration of each of the compounds inhibiting 50% of the enzyme activity was determined to be an IC50 (nM) value, and calculated using Prism (Version 5.01; GraphPad) software.

[3] = target: T2, human GST-DYRK1A (Homo sapiens, UniProt Q13627); experiment: GST-DYRK1A enzyme inhibition, ADP-Glo kinase assay; settings: ATP 10 μM, GST-DYRK1A full length, read-out: DYRK1 IC50
T2 construct: purified human GST-DYRK1A (full length, Thermo Scientifics) enzyme; purchased Thermo Scientifics
In short: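 Full-length human GST-DYRK1A (10 ng) with 10 μM ATP and specific substrate in 40 mM Tris-HCl pH 7.4, 20 mM MgCl2, 0.5 mg/mL BSA, 50 μM DTT, 1 h at 25 °C. ADP formation read by ADP-Glo luminescence relative to solvent control; IC50 from three data sets.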

T1 sequence (P49759 129-484 limits assumed): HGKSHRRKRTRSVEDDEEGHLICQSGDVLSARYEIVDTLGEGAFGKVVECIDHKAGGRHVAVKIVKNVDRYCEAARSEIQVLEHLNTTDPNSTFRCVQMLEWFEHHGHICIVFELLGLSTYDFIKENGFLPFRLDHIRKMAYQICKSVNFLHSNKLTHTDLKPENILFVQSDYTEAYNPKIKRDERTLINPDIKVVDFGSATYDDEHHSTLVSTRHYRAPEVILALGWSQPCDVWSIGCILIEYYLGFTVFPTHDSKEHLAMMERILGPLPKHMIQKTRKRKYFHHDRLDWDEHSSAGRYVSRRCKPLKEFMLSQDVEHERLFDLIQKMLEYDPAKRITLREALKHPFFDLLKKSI

| Compound | IC50 [1] [µM] | IC50 [2] [µM] | IC50 [3] [µM] |
| --- | --- | --- | --- |
| COc1cc(P2(=O)CCN(C3CC3)CC2)ccc1Nc1nc(NCCS(C)(=O)=O)c2c(C(F)(F)F)c[nH]c2n1 [Example 426, 1-cyclopropyl-4-(3-methoxy-4-((4-((2-(methyl-sulfonyl)eth-yl)amino)-5-(trifluoromethyl)-7H-pyrrolo[2,3-d]pyrimidin-2-yl)amino)phenyl)-1,4-azaphosphinane 4-oxide] | < 0.1 | < 0.1 | < 0.1 |
| CCCNc1nc(Nc2ccc(S(C)(=O)=O)cc2OC)nc2[nH]ccc12 [Example 9, N^2-(2-methoxy-4-(methylsulfonyl)phenyl)-N^4-propyl-7H-pyrrolo[2,3-d]pyrimidine-2,4-diamine 2,2,2-trifluoroacetate] | 0.301 to 1 | < 0.1 | 0.301 to 1 |
| COc1cc(S(C)(=O)=O)ccc1Nc1nc(NCC(C)C)c2cc[nH]c2n1 [Example 12, N^4-isobutyl-N^2-(2-methoxy-4-(methylsulfonyl)phenyl)-7H-pyrrolo[2,3-d]pyrimidine-2,4-diamine 2,2,2-trifluoroacetate] | 0.301 to 1 | < 0.1 | 0.301 to 1 |
| CCCNc1nc(Nc2ccc(S(=O)(=O)N3CCC(N4CCOCC4)CC3)cc2OC)nc2[nH]ccc12 [Example 8, N^2-(2-methoxy-4-((4-morpholinopiperidin-1-yl)sulfonyl)phenyl)-N^4-propyl-7H-pyrrolo[2,3-d]pyrimidine-2,4-diamine 2,2,2-trifluoroacetate] | 0.301 to 1 | < 0.1 | 0.301 to 1 |
| O=C(c1ccc(Nc2nc(NC3CCCCC3)c3c(C(F)(F)F)c[nH]c3n2)c2c1CCO2)N1CCOCC1 [Example 454, (7-((4-(cyclo-hexylamino)-5-(trifluoromethyl)-7H-pyrrolo[2,3-d]pyrimidin-2-yl)amino)-2,3-dihydrobenzo-furan-4-yl) (morpholino) methanone] | 0.301 to 1 | < 0.1 | 0.301 to 1 |
| COc1cc(S(C)(=O)=O)ccc1Nc1nc(NCC2CCC2)c2cc[nH]c2n1 [Example 39, N^4-(cyclobutylmethyl)-N^2-(2-methoxy-4-(methylsulfonyl)phenyl)-7H-pyrrolo[2,3-d]pyrimidine-2,4-diamine 2,2,2-trifluoroacetate] | 0.301 to 1 | < 0.1 | 0.301 to 1 |
| COc1cc(S(C)(=O)=O)ccc1Nc1nc(N[C@@H]2CCOC2)c2c(C(F)(F)F)c[nH]c2n1 [Example 210, (R)-N^2-(2-methoxy-4-(methylsulfonyl)phenyl)-N^4-(tetrahydrofuran-3-yl)-5-(trifluoromethyl)-7H-pyrrolo[2,3-d]pyrimidine-2,4-diamine] | 0.301 to 1 | < 0.1 | 0.301 to 1 |
| CC[C@@H](C)Nc1nc(Nc2ccc(C(=O)N3CCC(N4CCOCC4)CC3)c3c2OCC3)nc2[nH]cc(C#N)c12 [Example 355, (R)-4-(sec-butylamino)-2-((4-(4-morpho-linopiperidine-1-carbonyl)-2,3-dihydro-benzofuran-7-yl)amino)-7H-pyrrolo[2,3-d]pyrimidine-5-carbonitrile] | < 0.1 | < 0.1 | < 0.1 |
| CC[C@H](C)Nc1nc(Nc2ccc(C(=O)N3CCOCC3)c3c2OCC3)nc2[nH]cc(C#N)c12 [Example 356, (S)-4-(sec-butylamino)-2-((4-(morpholine-4-carbonyl)-2,3-dihydro-benzofuran-7-yl)amino)-7H-pyrrolo[2,3-d]pyrimidine-5-carbonitrile] | 0.301 to 1 | < 0.1 | 0.301 to 1 |
| O=C(c1ccc(Nc2nc(NC3CCCC3)c3cc[nH]c3n2)c2c1OCCO2)N1CCOCC1 [Example 48, (8-((4-(cyclopentylamino)-7H-pyrrolo[2,3-d]pyrimidin-2-yl)amino)-2,3-dihydrobenzo[b][1,4]dioxin-5-yl)(morpholino)methanone] | 0.301 to 1 | < 0.1 | 0.301 to 1 |
| N#Cc1c[nH]c2nc(Nc3ccc(C(=O)N4CCOCC4)c4c3OCCO4)nc(NC3CCCCC3)c12 [Example 248] | 0.301 to 1 | < 0.1 | 0.301 to 1 |
| CC(C)CNc1nc(Nc2ccc(C(=O)N3CCOCC3)c3c2OCCO3)nc2[nH]cc(C#N)c12 [Example 121, 4-(isobutylamino)-2-((8-(morpholine-4-carbonyl)-2,3-dihydrobenzo[b][1,4]dioxin-5-yl)amino)-7H-pyrrolo[2,3-d]pyrimidine-5-carbonitrile] | 0.101 to 0.3 | < 0.1 | 0.301 to 1 |
| CC(C)Nc1nc(Nc2ccc(C(=O)N3CCC(N4CCOCC4)CC3)c3c2OCC3)nc2[nH]cc(C#N)c12 [Example 353, 4-(isopropylamino)-2-((4-(4-morpholino-piperidine-1-carbonyl)-2,3-dihydro-benzofuran-7-yl)amino)-7H-pyrrolo[2,3-d]pyrimidine-5-carbonitrile] | < 0.1 | < 0.1 | < 0.1 |
| COc1cc(S(=O)(=O)N2CCOCC2)ccc1Nc1nc(NC2CCCCC2)c2cc[nH]c2n1 [Example 26, N^4-cyclohexyl-N^2-(2-methoxy-4-(morpholinosulfonyl)phenyl)-7H-pyrrolo[2,3-d]pyrimidine-2,4-diamine 2,2,2-trifluoroacetate] | 0.301 to 1 | < 0.1 | 0.301 to 1 |
| CCNc1nc(Nc2ccc(S(=O)(=O)N3CCC(N4CCOCC4)CC3)cc2OC)nc2[nH]ccc12 [Example 6, N^4-ethyl-N^2-(2-methoxy-4-((4-morpholinopiperidin-1-yl)sulfonyl)phenyl)-7H-pyrrolo[2,3-d]pyrimidine-2,4-diamine 2,2,2-trifluoroacetate] | 0.301 to 1 | < 0.1 | 0.301 to 1 |
| CCCCNc1nc(Nc2ccc(C(=O)N3CCN(C4COC4)CC3)c3c2OCCO3)nc2[nH]cc(C(F)(F)F)c12 [Example 429, (8-((4-(butylamino)-5-(trifluoromethyl)-7H-pyrrolo[2,3-d]pyrimidin-2-yl)amino)-2,3-dihydrobenzo[b] [1,4]dioxin-5-yl) (4-(oxetan-3-yl)piperazin-1-yl)methanone] | < 0.1 | < 0.1 | < 0.1 |
| COc1cc(S(=O)(=O)N2CCOCC2)ccc1Nc1nc(NC2CC2)c2cc[nH]c2n1 [Example 57, N^4-cyclopropyl-N^2-(2-methoxy-4-(morpholinosulfonyl)phenyl)-7H-pyrrolo[2,3-d]pyrimidine-2,4-diamine] | 0.301 to 1 | < 0.1 | 0.301 to 1 |
| N#Cc1c[nH]c2nc(Nc3ccc(C(=O)N4CC(CO)(CO)C4)c4c3OCCO4)nc(NC3CC3)c12 [Example 332, 2-((8-(3,3-bis (hydroxymethyl)azetidine-1-carbonyl)-2,3-dihydrobenzo[b] [1,4]dioxin-5-yl)amino)-4-(cyclopropyl-amino)-7H-pyrrolo[2,3-d]pyrimidine-5-carbonitrile] | < 0.1 | 0.101 to 0.3 | 0.301 to 1 |
| COc1cc(S(C)(=O)=O)ccc1Nc1nc(NCC2CCCC2)c2cc[nH]c2n1 [Example 42, N^4-(cyclopentylmethyl)-N^2-(2-methoxy-4-(methylsulfonyl)phenyl)-7H-pyrrolo[2,3-d]pyrimidine-2,4-diamine 2,2,2-trifluoroaceate] | 0.301 to 1 | 0.101 to 0.3 | 0.301 to 1 |
| CNc1nc(Nc2ccc(S(C)(=O)=O)cc2OC)nc2[nH]ccc12 [Example 4, N^2-(2-methoxy-4-(methylsulfonyl)phenyl)-N^4-methyl-7H-pyrrolo[2,3-d]pyrimidine-2,4-diamine 2,2,2-trifluoroacetate] | 0.301 to 1 | < 0.1 | 0.301 to 1 |
| COc1cc(S(C)(=O)=O)ccc1Nc1nc(NCC(C)C)c2c(C#N)c[nH]c2n1 [Example 100, 4-(isobutylamino)-2-((2-methoxy-4-(methylsulfonyl)phenyl)amino)-7H-pyrrolo[2,3-d]pyrimidine-5-carbonitrile] | 0.301 to 1 | < 0.1 | 0.301 to 1 |

Source: patent US20230066011A1, “PYRROLOPYRIMIDINE DERIVATIVE, AND PHARMACEUTICAL COMPOSITION FOR PREVENTING OR TREATING PROTEIN KINASE-RELATED DISEASE COMPRISING SAME AS ACTIVE INGREDIENT” (VORONOI CO., LTD., priority 2019, published 2023)
